Measurements from patent US5811442A, “Pharmaceutical compositions for the treatment of conditions associated with decreased blood flow” (priority 1997, dated 1998).
Like-named read-outs stand apart in the source and are kept apart here.

How the values were obtained:
[1] = system: β2-containing nicotinic acetylcholine receptor subtypes; experiment: Determination of Dopamine Release (synaptosomes); assay type: cell-based; conditions: for EC50: read-out: Dopamine Release EC50
From the text: Determination of Dopamine Release
Reported EC50 is expressed in nM and Emax represents the amount released relative to nicotine.

[2] = system: ganglionic receptors; experiment: Determination of Interaction with Ganglia (maximal activation of ganglionic receptors); assay type: cell-based; conditions: percentage of the maximal activation induced by (S)-(-)-nicotine
From the text: Typical ganglionic receptors include α3β4 receptor subtypes, (i.e., non-β2 containing receptor subtypes).
Determination of Interaction with Ganglia
The ganglionic tissues employed are representative of those which are believed absent of receptor subtypes containing β2-subunits.

[3] = biological target: T1, muscle receptors (Homo sapiens, UniProt P02708+P07510+Q07001); experiment: cell-based; assay type: cell-based; conditions: for Muscle Effect (Emax): percentage of the maximal activation induced by (S)-(-)-nicotine; for Emax: read-out: Muscle Effect (Emax)
T1 construct: endogenous in cells
From the text: Determination of Interaction with Muscle
The muscle tissues employed are representative of those which are believed absent of receptor subtypes containing β2-subunits.

[4] = biological target: T2, α4β2 receptor subtypes (Rattus norvegicus, UniProt P09483+P12390); experiment: Determination of Binding to Relevant Receptor Sites; conditions: calculated from IC50 values using the method of Cheng et al.
T2 construct: from tissue
From the text: Receptor binding constants provide a measure of the ability of the compound to bind to relevant receptor sites of certain cells of the patient.
Determination of Binding to Relevant Receptor Sites

[5] = system: nicotinic acetylcholine receptor subtypes including β2-subunits; conditions: reported; cited from earlier work
[6] = read-out: Dopamine Release Emax
[7] = read-out: Dopamine Release Emax, percentage of release obtained with (S)-(-)-nicotine concentration resulting in maximal effects

T2 sequence (P09483 31-630): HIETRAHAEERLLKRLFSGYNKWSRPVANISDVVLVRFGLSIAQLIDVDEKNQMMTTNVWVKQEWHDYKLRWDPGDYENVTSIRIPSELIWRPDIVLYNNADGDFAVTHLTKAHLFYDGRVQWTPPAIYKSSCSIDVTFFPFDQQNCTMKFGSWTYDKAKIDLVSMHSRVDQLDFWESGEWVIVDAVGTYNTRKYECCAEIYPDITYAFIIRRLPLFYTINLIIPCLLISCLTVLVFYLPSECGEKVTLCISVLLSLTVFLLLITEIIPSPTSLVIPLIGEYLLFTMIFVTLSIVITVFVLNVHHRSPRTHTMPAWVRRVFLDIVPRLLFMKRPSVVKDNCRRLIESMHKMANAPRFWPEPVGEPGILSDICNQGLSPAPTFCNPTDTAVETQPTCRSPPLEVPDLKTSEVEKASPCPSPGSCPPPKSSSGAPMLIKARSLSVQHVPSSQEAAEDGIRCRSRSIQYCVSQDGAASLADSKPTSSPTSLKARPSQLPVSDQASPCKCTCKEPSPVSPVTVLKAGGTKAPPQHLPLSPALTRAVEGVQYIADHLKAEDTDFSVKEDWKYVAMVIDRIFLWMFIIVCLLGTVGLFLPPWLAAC
T2 sequence (P12390 25-500): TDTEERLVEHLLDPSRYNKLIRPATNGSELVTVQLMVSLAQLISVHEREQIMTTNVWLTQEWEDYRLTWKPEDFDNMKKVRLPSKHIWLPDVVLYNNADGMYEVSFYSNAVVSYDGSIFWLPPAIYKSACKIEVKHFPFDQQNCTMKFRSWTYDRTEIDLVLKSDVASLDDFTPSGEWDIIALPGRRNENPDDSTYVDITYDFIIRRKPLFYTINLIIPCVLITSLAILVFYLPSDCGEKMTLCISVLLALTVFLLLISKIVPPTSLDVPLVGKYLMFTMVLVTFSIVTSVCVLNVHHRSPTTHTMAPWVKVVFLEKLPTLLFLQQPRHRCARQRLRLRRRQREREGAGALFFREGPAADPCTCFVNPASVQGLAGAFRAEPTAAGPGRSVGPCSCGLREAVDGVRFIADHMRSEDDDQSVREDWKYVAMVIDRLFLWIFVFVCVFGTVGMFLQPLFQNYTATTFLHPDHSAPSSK
T1 sequence (P02708 21-457): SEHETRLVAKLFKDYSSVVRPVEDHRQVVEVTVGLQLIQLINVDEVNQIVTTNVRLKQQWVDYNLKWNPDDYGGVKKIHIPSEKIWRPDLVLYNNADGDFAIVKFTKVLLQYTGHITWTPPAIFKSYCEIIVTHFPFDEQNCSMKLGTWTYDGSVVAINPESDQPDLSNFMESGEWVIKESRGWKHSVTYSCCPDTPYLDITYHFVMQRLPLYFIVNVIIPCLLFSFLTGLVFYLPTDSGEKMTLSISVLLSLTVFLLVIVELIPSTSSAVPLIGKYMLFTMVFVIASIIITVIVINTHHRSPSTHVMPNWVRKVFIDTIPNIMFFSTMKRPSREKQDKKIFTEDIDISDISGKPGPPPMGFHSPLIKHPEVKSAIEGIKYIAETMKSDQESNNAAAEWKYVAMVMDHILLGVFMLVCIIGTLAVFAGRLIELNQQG
T1 sequence (P07510 23-517): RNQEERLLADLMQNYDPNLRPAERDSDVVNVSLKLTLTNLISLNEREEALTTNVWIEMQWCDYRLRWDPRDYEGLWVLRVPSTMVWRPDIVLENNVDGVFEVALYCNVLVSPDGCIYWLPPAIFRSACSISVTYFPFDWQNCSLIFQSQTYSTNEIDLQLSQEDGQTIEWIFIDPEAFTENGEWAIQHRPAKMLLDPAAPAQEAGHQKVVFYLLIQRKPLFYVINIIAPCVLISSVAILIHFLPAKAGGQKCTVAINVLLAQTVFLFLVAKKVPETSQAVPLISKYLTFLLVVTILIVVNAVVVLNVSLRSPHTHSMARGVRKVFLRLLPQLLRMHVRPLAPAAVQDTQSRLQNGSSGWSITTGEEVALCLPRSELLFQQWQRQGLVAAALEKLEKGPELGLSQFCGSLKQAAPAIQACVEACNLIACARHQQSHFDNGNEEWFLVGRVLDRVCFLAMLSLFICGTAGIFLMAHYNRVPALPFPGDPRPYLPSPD
T1 sequence (Q07001 22-517): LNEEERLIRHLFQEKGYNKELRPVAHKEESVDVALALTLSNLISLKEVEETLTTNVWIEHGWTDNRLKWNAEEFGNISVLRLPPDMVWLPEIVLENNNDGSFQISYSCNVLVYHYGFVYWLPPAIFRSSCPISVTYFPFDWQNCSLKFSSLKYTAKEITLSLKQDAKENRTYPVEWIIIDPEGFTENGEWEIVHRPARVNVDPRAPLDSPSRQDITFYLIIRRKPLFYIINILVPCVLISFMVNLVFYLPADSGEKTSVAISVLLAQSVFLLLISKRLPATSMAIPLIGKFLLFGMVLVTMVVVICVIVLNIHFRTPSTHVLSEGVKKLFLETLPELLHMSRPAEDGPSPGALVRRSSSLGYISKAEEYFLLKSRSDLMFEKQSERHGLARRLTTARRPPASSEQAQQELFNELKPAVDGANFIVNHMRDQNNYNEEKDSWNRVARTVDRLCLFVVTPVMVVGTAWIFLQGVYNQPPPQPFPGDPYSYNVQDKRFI

For CNCC/C=C/c1ccc(C)nc1 [Sample No. 1, (E)-N-methyl-4[3-(6-methylpyridin)yl]-3-buten-1-amine monofumarate], the EC50 [1] was 10000 nM, the Emax [1, 6] was 115% and the “Ganglion Effect (Emax)” value [2] was 4 % nicotine.
With CNCC/C=C/c1cncc(-c2ccccc2)c1 [Sample No. 3, (E)-N-Methyl-4-[3-(5-phenylpyridin)yl]-3-buten-1-amine] the “Muscle Effect (Emax)” value [3] was 8 % nicotine, the EC50 [1] was over 100000 nM and the Emax [1, 7] was over 160%. For the same compound, the “Ganglion Effect (Emax)” value [2] was 0 % nicotine.
With COc1cncc(/C=C/CCN)c1 [Sample No. 4, (E)-4-[3-(5-methoxypyridin)yl]-3-buten-1-amine monofumarate] the EC50 [1] was 3800 nM and the “Ganglion Effect (Emax)” value [2] was 0 % nicotine.
With CNCC/C=C/c1cncc(N)c1 [Sample No. 5, (E)-N-methyl-4-[3-(5-aminopyridin)yl]-3-buten-1-amine] the “Muscle Effect (Emax)” value [3] was 4 % nicotine, the EC50 [1] was 2000 nM and the Emax [1, 7] was 85%. For the same compound, the “Ganglion Effect (Emax)” value [2] was 4 % nicotine.
In the case of CNCC/C=C/c1cncc(OCc2ccccc2)c1 [Sample No. 6, (E)-N-Methyl-4-[3-(5-benzyloxypyridin)yl]-3-buten-1-amine], the “Muscle Effect (Emax)” value [3] is reported as 12 % nicotine, the EC50 [1] is reported as 4000 nM and the Emax [1, 7] is reported as 33%. The “Ganglion Effect (Emax)” value [2] was 0 % nicotine.
In the case of CNCC/C=C/c1cncc(Br)c1 [Sample No. 7, (E-N-methyl-4-[3-5-bromopyridin)yl]-3-buten-1-amine monofumarate], the Emax [3] is reported as 8%, the Ki [4] is reported as 79 nM and the EC50 [1] is reported as 2400 nM. The Emax [1, 7] was 107% and the “Ganglion Effect (Emax)” value [2] was 11 % nicotine.
In the case of CNCC/C=C/c1cncc(OC)c1 [Sample No. 8, (E)-N-methyl-4-[3-(5-methoxypyridin)yl]-3-butene-1-amine], the “Muscle Effect (Emax)” value [3] is reported as 0 % nicotine, the Ki [4] is reported as 10 nM and the EC50 [1] is reported as 191 nM. The Emax [1, 7] was 103% and the “Ganglion Effect (Emax)” value [2] was 0 % nicotine.
In the case of CCOc1cncc(/C=C/CCNC)c1 [Sample No. 9, (E)-N-methyl-4-[3-(5-ethoxypyridin)yl]-3-butene-1-amine], the “Muscle Effect (Emax)” value [3] is reported as 0 % nicotine, the Ki [4] is reported as 9 nM and the EC50 ([1]; dopamine release) is reported as 287 nM. The “Dopamine Release Emax” value ([1]; percentage of release obtained with (S)-(-)-nicotine concentration resulting in maximal effects) was 124% and the “Ganglion Effect (Emax)” value [2] was 0 % nicotine.
With CNC(C)C/C=C/c1cccnc1 (stereo not shown) [Sample No. 10, (E)-N-methyl-5-(3-pyridinyl)-4-penten-2-amine] the “Muscle Effect (Emax)” value [3] was 4 % nicotine, the Ki [4] was 82 nM and the EC50 [1] was 21400 nM. The Emax [1, 7] was 182% and the “Ganglion Effect (Emax)” value [2] was 6 % nicotine.
In the case of CNCC/C=C/c1cncnc1 [Sample No. 11, (E)-N-methyl-4-(5-pyrimidinyl)-3-buten-1-amine], the Emax [3] is reported as 12% and the “Ganglion Effect (Emax)” value [2] is reported as 0 % nicotine.
In the case of CNCC/C=C\c1cccnc1 [Sample No. 12, (Z)-metanicotine monofumarate], the EC50 [1] is reported as 8310 nM and the Emax [1, 6] is reported as 96%.
NCC/C=C/c1cncc(Br)c1 [Sample No. 13, (E)-4-[3-(5-Bromopyridin)yl]-3-buten-1-amine Hemifumarate] gave an Emax [3] of 5%, a Ki [4] of 707 nM and an EC50 [1] of 49 nM. For the same compound, the Emax [1, 7] was 29% and the “Ganglion Effect (Emax)” value [2] was 0 % nicotine.
CNCC/C=C/c1cccnc1 [Sample No. 14, (E)-metanicotine monofumarate] showed an EC50 [1] of 1020 nM and an Emax [1, 6] of 90%.
In the case of CNCC/C=C/c1cncc(Oc2ccccc2)c1 [Sample No. 15, (E)-N-Methyl-4-[3-(5-phenoxypyridin)yl]-3-buten-1-amine], the “Muscle Effect (Emax)” value [3] is reported as 5 % nicotine, the EC50 [1] is reported as 114 nM and the Emax [1, 7] is reported as 14%. For the same compound, the “Ganglion Effect (Emax)” value [2] was under 15 % nicotine.
With CNCC/C=C/c1cncc(OC(C)C)c1 [Sample No. 16, (E)-N-Methyl-4-[3-(5-isopropoxypyridin)yl]-3-buten-1-amine] the “Muscle Effect (Emax)” value [3] was 8 % nicotine, the EC50 [1] was 51 nM and the Emax [1, 7] was 57%. The “Ganglion Effect (Emax)” value [2] was under 15 % nicotine.
With CNCC/C=C/c1cncc(COC)c1 [Sample No. 17, (E)-N-Methyl-4-[3-(5-methoxymethylpyridin)yl]-3-buten-1-amine] the “Muscle Effect (Emax)” value [3] was 13 % nicotine, the EC50 [1] was 16000 nM and the Emax [1, 7] was 46%. The “Ganglion Effect (Emax)” value [2] was 0 % nicotine.
In the case of NCC/C=C/c1cccnc1.O=C(O)/C=C/C(=O)O.O=C(O)/C=C/C(=O)O [Sample No. 18, (E)-4-(3-pyridinyl)-3-buten-1-amine difumarate], the “Muscle Effect (Emax)” value [3] is reported as 15 % nicotine, the EC50 [1] is reported as 5020 nM and the Emax [1, 7] is reported as 81%. The “Ganglion Effect (Emax)” value [2] was 23 % nicotine.
In the case of CCOc1cncc(/C=C/CCNC)c1 [Sample No. 19, (E)-N-Methyl-4-[3-(5-ethoxypyridin)yl]-3-buten-1-amine sesquifumarate], the “Muscle Effect (Emax)” value [3] is reported as 3 % nicotine, the EC50 ([1]; dopamine release) is reported as 276 nM and the “Ganglion Effect (Emax)” value [2] is reported as under 15 % nicotine.
In the case of CN1CCC[C@H]1c1cccnc1 [Sample No. C-1, (S)-(-)-nicotine, reference compound], the “affinity to bind to nicotinic acetylcholine receptor subtypes (in words)” value [5] is given as “demonstrated affinity to bind to numerous nicotinic acetylcholine receptor subtypes including β2-subunits”, the Emax [1, 6] is given as 100% and the “Ganglion Effect (Emax)” value [2] is given as 100 % nicotine.
